# Laboratory results taken from ChEMBL document CHEMBL5303711, “ECBD screening data for assay EOS300108” (2023).
# The source made the active and inactive calls. No rule for the calls is given here.
# Assay: Cytotoxicity activity against human HepG2 cells assessed by CellTiter-Glo luminescent cell viability assay.
# Type: toxicity, cell-based
# Design: assay stage confirmatory assay, source tissue liver
# Settings: HepG2 cells, read-out: IC50 relative
row,SMILES,CC50
1,FC(F)(F)c1cccc(Nc2nc(-c3ccccc3)nc3ncccc23)c1,41.6 µM (inactive)
2,CC(=O)N1N=C(c2ccc(Br)cc2)C[C@H]1c1ccc(O)cc1,20.2 µM (inactive)
3,COc1ccsc1C(=O)Nc1ncc(Cl)s1,2.3 µM (active)
4,CCCc1cc(C)[nH]c(=O)c1CNC(=O)c1cc(-c2ccnc(N3CCN(C)CC3)c2)cc2c1cnn2C(C)C,6 µM (active)
5,Cc1ccc(NC(=O)c2ccc(CN3CC[C@H](N(C)C)C3)c(C(F)(F)F)c2)cc1Nc1nccc(-c2cncnc2)n1 [BAFETINIB],0.9 µM (active)
6,C[C@H](O)CN1CCC(CNCc2ccc(Cl)cc2)CC1,7.6 µM (active)
7,CC(C)CNC(=O)COc1ccc(-c2nc(C(C)C)no2)cc1,8.1 µM (active)
8,Oc1c(Cl)cc(Cl)c(Cl)c1Cc1c(O)c(Cl)cc(Cl)c1Cl [HEXACHLOROPHENE],5.2 µM (active)
9,Cc1ccc(NC(=O)Cc2ccc(-n3cccn3)cc2)nc1,0.4 µM (active)
10,CCCCN(Cc1ccc(C(=O)NO)cc1)C(=O)Nc1ccccc1 [NEXTURASTAT A],6.9 µM (active)
11,CC1Oc2ccc(S(=O)(=O)N3CCN(C(=O)c4ccc(Cl)cc4)CC3)cc2NC1=O (stereo unspecified),6.6 µM (active)
12,O=c1cc(CSc2ccccc2)nc2sc(-c3ccco3)nn12,3.2 µM (active)
13,CCS(=O)(=O)Nc1ccc2c(c1)/C(=C(/Nc1ccc(CN3CCCCC3)cc1)c1ccccc1)C(=O)N2 [HESPERADIN],0.2 µM (active)
14,COc1ccc(-c2nc(Cn3ncc(Cl)c(Cl)c3=O)co2)cc1,11 µM (active)
15,C=C(C)[C@H]1Cc2c(ccc3c2O[C@@H]2COc4cc(OC)c(OC)cc4[C@@H]2C3=O)O1 [ROTENONE],0.5 µM (active)
16,CCN(CC)C(=O)N1CC(Oc2ccc(-c3noc(C4CCOCC4)n3)cc2)C1,2.3 µM (active)
17,O=C(Cn1ncc(Cl)c(Cl)c1=O)N(Cc1ccco1)CC(F)(F)F,6.6 µM (active)
18,CCS(=O)(=O)c1ccc(NC(=O)c2ccc(F)c(S(=O)(=O)N3CCCCC3)c2)cc1,6.1 µM (inactive)

row,SMILES,CC50
1,c1ccc2c(OCCN3CCC(N4CCCCC4)CC3)cccc2c1,6.4 µM (active)
2,CCN1CCN(C(=O)C2CCN(c3nn4cc(-c5ccc(C)cc5)nc4s3)CC2)CC1,9.5 µM (active)
3,Cc1cc(SCC#N)n2ncc(-c3ccccc3)c2n1,0.9 µM (active)
4,O=C(Nc1cccnc1)c1ccc(Cn2nc(N3CCN(c4ccccc4)CC3)ccc2=O)o1,5.7 µM (active)
5,Cc1cccc(-c2[nH]c(C(C)(C)C)nc2-c2ccc3c(c2)OCO3)n1,2.8 µM (active)
6,Cn1c(N2CCN(Cc3ccccc3)CC2)nc2c1c(=O)n(Cc1ccccc1)c(=O)n2C,13.4 µM (inactive)
7,O=C1CCCN1c1ccc(S(=O)(=O)Nc2cccc3cccnc23)cc1,9.7 µM (active)
8,COc1cc(OC)c2cc(CCCN)[nH]c2c1,8.2 µM (active)
9,COc1cc2c(N3CCN(C(=O)Nc4ccc(OC(C)C)cc4)CC3)ccnc2cc1OCCCN1CCCCC1,7.4 µM (active)
10,NCC1CN(CC2CC2)CC12CCCCC2 (stereo unspecified),13.1 µM (inactive)
11,Cc1nc(-c2cn3c(n2)-c2ccc(-c4cnn(C(C)(C)C(N)=O)c4)cc2OCC3)n(C(C)C)n1 [TASELISIB],2.1 µM (active)
12,CNC(=O)c1cc(Oc2ccccc2N)ccn1,32.7 µM (inactive)
13,COCCCN(C(=O)CCl)c1nc(-c2ccc(OC)cc2)cs1,1.5 µM (active)
14,COc1ccc([C@@H](O)c2cc(-c3ncnc4cc(N5CCOCC5)ccc34)c(F)cc2Cl)nn1 [NEDISERTIB],3.4 µM (active)
15,CC(C)Cn1cnc(S(=O)(=O)N2CCC[C@@H]2COc2ccc(F)cc2)c1,8.4 µM (active)
16,CCOc1ccccc1CN1CCN(Cc2ccc(C)cc2)CC1CCO (stereo unspecified),12.9 µM (inactive)
17,CC(C)Oc1ccc(-c2nc(-c3cccc4c3CC[C@@H]4NCCO)no2)cc1C#N [OZANIMOD],3.4 µM (active)
18,COc1ccc(C(=O)N(C)C)cc1NC(=O)c1ccc2ccccc2n1,8.9 µM (active)
